Reference: patent publication US20100298141A1, “SUBSTITUTED PYRIDINE N-OXIDE HERBICIDES” (E. I. DU PONT DE NEMOURS AND COMPANY, priority 2007, published 2010)

How the values were obtained:
[1] = test system: windgrass; assay: Test C pre-/postemergence test; format: in vivo, Apera spica-venti; conditions: Postemergence; for Plant response rating, Windgrass: scale 0 to 100, 0 no effect, 100 complete control
Text: Seeds of plant species selected from blackgrass (Alopecurus myosuroides), downy brome (Bromus tectorum), green foxtail (Setaria viridis), Italian ryegrass (Lolium multiflorum), wheat (Triticum aestivum), wild oat (Avena fatua), catchweed bedstraw (Galium aparine), Russian thistle (Salsola kali), […] (Cynodon dactylon), Surinam grass (Brachiaria decumbens), cocklebur (Xanthium strumarium), corn (Zea mays), crabgrass (Digitaria sanguinalis), woolly cupgrass (Eriochloa villosa), giant foxtail (Setaria faberii), Goosegrass (Eleusin indica), johnsongrass (Sorghum halepense), kochia (Kochia scoparia), lambsquarters (Chenopodium album), morningglory (Ipomoea coccinea), eastern black nightshade (Solanum ptycanthum), yellow nutsedge (Cyperus esculentus), pigweed (Amaranthus retroflexus), common ragweed (Ambrosia elation), soybean (Glycine max), common (oilseed) sunflower (Helianthus annuus), and velvetleaf (Abutilon theophrasti) were planted and treated preemergence with test chemicals formulated in a non-phytotoxic solvent mixture which included a surfactant. At the same time, plants selected from these crop and weed species and also winter barley (Hordeum vulgare), canarygrass (Phalaris minor), and chickweed (Stellaria media) were treated with postemergence applications of some of the test chemicals formulated in the same manner. Plants ranged in height from 2 to 18 cm (1- to 4-leaf stage) for postemergence treatments. […] At time of treatment, test pots were flooded to 3 cm above the soil surface, treated by application of test compounds directly to the paddy water, and then maintained at that water depth for the duration of the test. […] A dash (-) response means no test result.

[2] = test system: green foxtail; assay: Test F preemergence test; format: in vivo, Setaria viridis; conditions: scale 0 to 100
Outline: (§1)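 Compounds in a non-phytotoxic solvent formulation with surfactant were applied before emergence after sowing, or, for sugarcane, also postemergence. Evaluation was visual, against controls, after 14 to 21 greenhouse days.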

[3] = test system: mustard; assay: Test F preemergence test; format: in vivo, Brassica nigra; conditions: scale 0 to 100
Outline: as §1

[4] = test system: guineagrass; assay: Test F preemergence test; format: in vivo, Panicum maximum; conditions: scale 0 to 100
Outline: as §1

[5] = test system: dallisgrass; assay: Test F preemergence test; format: in vivo, Paspalum dilatatum; conditions: scale 0 to 100
Outline: as §1

[6] = test system: barnyardgrass; assay: Test F preemergence test; format: in vivo, Echinochloa crus-galli; conditions: scale 0 to 100
Outline: as §1

[7] = test system: southern sandbur; assay: Test F preemergence test; format: in vivo, Cenchrus echinatus; conditions: scale 0 to 100
Outline: as §1

[8] = test system: prickly sida; assay: Test F preemergence test; format: in vivo, Sida spinosa; conditions: scale 0 to 100
Outline: as §1

[9] = test system: common purslane; assay: Test F preemergence test; format: in vivo, Portulaca oleracea; conditions: scale 0 to 100
Outline: as §1

[10] = test system: common groundsel; assay: Test F preemergence test; format: in vivo, Senecio vulgaris; conditions: scale 0 to 100
Outline: as §1

[11] = test system: itchgrass; assay: Test F preemergence test; format: in vivo, Rottboellia cochinchinensis; conditions: scale 0 to 100
Outline: as §1

[12] = test system: quackgrass; assay: Test F preemergence test; format: in vivo, Elytrigia repens; conditions: scale 0 to 100
Outline: as §1

[13] = test system: field bindweed; assay: Test F preemergence test; format: in vivo, Convolvulus arvensis; conditions: scale 0 to 100
Outline: as §1

[14] = test system: common mallow; assay: Test F preemergence test; format: in vivo, Malva sylvestris; conditions: Preemergence, scale 0 to 100
Outline: as §1

CC(c1c(C(F)(F)F)nn(C)c1OC(F)F)S(=O)(=O)c1cccc[n+]1[O-] (stereo not drawn) [Compound 5]
30: Plant response rating (0 to 100), Windgrass ([1]; 31 g ai/ha) | Plant response rating, Foxtail, Green ([2]; Preemergence, 16 g ai/ha)
90: Foxtail, Green plant response rating ([2]; 62 g ai/ha, Preemergence) | Itchgrass plant response rating ([11]; 62 g ai/ha, Preemergence) | Mallow plant response rating ([14]; 62 g ai/ha)
50: Plant response rating, Prickly Sida ([8]; Preemergence, 16 g ai/ha) | Plant response rating, Purslane ([9]; Preemergence, 31 g ai/ha) | Plant response rating, Quackgrass ([12]; Preemergence, 16 g ai/ha)
15: Plant response rating, Sandbur ([7]; 8 g ai/ha, preemergence)
75: Plant response rating, Windgrass ([1]; 250 g ai/ha) | Plant response rating, Black Mustard ([3]; Preemergence, 31 g ai/ha) | Plant response rating, Dallisgrass ([5]; Preemergence, 31 g ai/ha) | Plant response rating, Barnyardgrass ([6]; Preemergence, 16 g ai/ha) | Plant response rating, Sandbur ([7]; 16 g ai/ha, preemergence)
20: Plant response rating, Guineagrass ([4]; 8 g ai/ha, preemergence)
65: Plant response rating, Dallisgrass ([5]; Preemergence, 16 g ai/ha) | Purslane plant response rating ([9]; 62 g ai/ha, Preemergence)
100: Guineagrass plant response rating ([4]; 62 g ai/ha, Preemergence) | Plant response rating, Guineagrass ([4]; Preemergence, 16 g ai/ha) | Plant response rating, Guineagrass ([4]; Preemergence, 31 g ai/ha) | Barnyardgrass plant response rating ([6]; 62 g ai/ha, Preemergence) | Sandbur plant response rating ([7]; 62 g ai/ha, Preemergence) | Plant response rating, Sandbur ([7]; Preemergence, 31 g ai/ha) | Prickly Sida plant response rating ([8]; 62 g ai/ha, Preemergence) | Plant response rating, Prickly Sida ([8]; Preemergence, 31 g ai/ha) | Plant response rating, Groundsel ([10]; 8 g ai/ha, preemergence) | Groundsel plant response rating ([10]; 62 g ai/ha, Preemergence) | Plant response rating, Groundsel ([10]; Preemergence, 16 g ai/ha) | Plant response rating, Groundsel ([10]; Preemergence, 31 g ai/ha)
85: Black Mustard plant response rating ([3]; 62 g ai/ha, Preemergence) | Quackgrass plant response rating ([12]; 62 g ai/ha, Preemergence)
60: Plant response rating (0 to 100), Windgrass ([1]; 62 g ai/ha)
25: Plant response rating, Itchgrass ([11]; Preemergence, 16 g ai/ha) | Plant response rating, Mallow ([14]; 16 g ai/ha)
98: Dallisgrass plant response rating ([5]; 62 g ai/ha, Preemergence) | Plant response rating, Barnyardgrass ([6]; Preemergence, 31 g ai/ha)
0: Plant response rating, Foxtail, Green ([2]; 8 g ai/ha, preemergence) | Plant response rating, Black Mustard ([3]; 8 g ai/ha, preemergence) | Plant response rating, Dallisgrass ([5]; 8 g ai/ha, preemergence) | Plant response rating, Prickly Sida ([8]; 8 g ai/ha, preemergence) | Plant response rating, Purslane ([9]; 8 g ai/ha, preemergence) | Plant response rating, Field Bindweed ([13]; 8 g ai/ha, preemergence) | Field Bindweed plant response rating ([13]; 62 g ai/ha, Preemergence) | Plant response rating, Field Bindweed ([13]; Preemergence, 16 g ai/ha) | Plant response rating, Field Bindweed ([13]; Preemergence, 31 g ai/ha)
10: Plant response rating, Itchgrass ([11]; 8 g ai/ha, preemergence) | Plant response rating, Quackgrass ([12]; 8 g ai/ha, preemergence)
70: Plant response rating, Windgrass ([1]; 125 g ai/ha) | Plant response rating, Foxtail, Green ([2]; Preemergence, 31 g ai/ha) | Plant response rating, Barnyardgrass ([6]; 8 g ai/ha, preemergence) | Plant response rating, Quackgrass ([12]; Preemergence, 31 g ai/ha)
35: Plant response rating, Black Mustard ([3]; Preemergence, 16 g ai/ha) | Plant response rating, Purslane ([9]; Preemergence, 16 g ai/ha) | Plant response rating, Itchgrass ([11]; Preemergence, 31 g ai/ha)
